Data: patent US20210069145A1, “COMPOSITIONS AND METHODS FOR REDUCING A FATTY ACID DESATURATION INDEX IN A SUBJECT IN NEED THEREOF” (Amarin Pharmaceuticals Ireland Limited, priority 2013, published 2021)

Key:
[1] = tested on: fatty acid desaturation index (FADI), RBCs; assay: Fatty acid desaturation index (FADI) ratios in red blood cells, 12-week placebo-controlled study; format: in vivo, human; details: 4 g/day, 12 weeks, placebo-adjusted, from baseline
Procedure: (§1) A multi-center, placebo-controlled, randomized, double-blind, 12-week study was performed to evaluate the efficacy and safety of >96% E-EPA in patients with fasting triglyceride levels ≥200 mg/dl and <500 mg/dl despite statin therapy (the mean of two qualifying entry values needed to be ≥185 mg/dl and at least one of the values needed to be ≥200 mg/dl). The primary objective of the study was to determine the efficacy of >96% E-EPA 2 g daily and 4 g daily, compared to placebo, in lowering fasting TG levels in patients with high risk for cardiovascular disease and with fasting TG levels ≥200 mg/dl and <500 mg/dl, despite treatment to LDL-C goal on statin therapy.
(§2) The population for this study was men and women >18 years of age with a body mass index ≤45 kg/m^2 with fasting TG levels greater than or equal to 200 mg/dl and less than 500 mg/dl and on a stable does of statin therapy (with or without ezetimibe). The statin was atorvostatin, rosuvastatin or simvastatin. The dose of statin must have been stable for ≥4 weeks prior to the LDL-C/TG baseline qualifying measurement for randomization. The statin dose was optimized such that the patients are at their LDL-C goal at the LDL-C/TG baseline qualifying measurements. The same statin at the same dose was continued until the study ended. […]
(§3) The primary efficacy variable for the double-blind treatment period was percent change in TG from baseline to Week 12 endpoint. The secondary efficacy variables for the double-blind treatment period included the following: • Percent changes in total cholesterol (TC), high-density lipoprotein cholesterol (HDL-C), LDL-C, calculated non-HDL-C, and very low-density lipoprotein cholesterol (VLDL-C) from baseline to Week 12 endpoint; • Percent change in very low-density lipoprotein TG from baseline to Week 12; • Percent changes in apolipoprotein A-I (apo A-I), apolipoprotein B (apo B), and apo A-I/apo B ratio from baseline to Week 12; • Percent changes in lipoprotein(a) from baseline to Week 12; • Percent changes in LDL particle number and size, measured by nuclear magnetic resonance, from baseline to Week 12; • Percent change in remnant-like particle cholesterol from baseline to Week 12; • Percent change in oxidized LDL from baseline to Week 12; • Changes in FPG and HbA1c from baseline to Week 12; • Change in insulin resistance, as assessed by the homeostasis model index insulin resistance, from baseline to Week 12; • Percent change in lipoprotein associated phospholipase A2 (Lp-PLA2) from baseline to Week 12; • Change in intracellular adhesion molecule-1 from baseline to Week 12; • Change in interleukin-2 from baseline to Week 12; • Change in plasminogen activator inhibitor-1 from baseline to Week 12. […]

[2] = tested on: fatty acid desaturation index (FADI), plasma; assay: Fatty acid desaturation index (FADI) ratios in plasma, 12-week placebo-controlled study; format: in vivo, human; details: 4 g/day, 12 weeks, placebo-adjusted, from baseline
Procedure: as §1, §2, §3

[3] = listed as Ethyl Eicosapentaenoate

In the case of `CC/C=C\C/C=C\C/C=C\C/C=C\C/C=C\CCCC(=O)OCC` [ethyl eicosapentaenoate, all-cis eicosa-5,8,11,14,17-pentaenoic acid ethyl ester], the “FADI-16 (Palmitoleic acid/Palmitic acid, C16:1/C16:0) % Change, RBCs” value [1] is reported as “significantly reduced”, the “FADI-18 (Oleic acid/Stearic Acid, C18:1/C18:0) % Change, RBCs” value [1] is reported as “significantly reduced” and the “FADI-16 (Palmitoleic acid/Palmitic acid, C16:1/C16:0) % Change, RBCs” value [1, 3] is reported as −15.7%. The “FADI-18 (Oleic acid/Stearic Acid, C18:1/C18:0) % Change, RBCs” value [1, 3] was −3.1%, the “FADI-16 (Palmitoleic acid/Palmitic acid, C16:1/C16:0) % Change, Plasma” value [2] was “significantly reduced” and the “FADI-18 (Oleic acid/Stearic Acid, C18:1/C18:0) % Change, Plasma” value [2] was “significantly reduced”. The “FADI-16 (Palmitoleic acid/Palmitic acid, C16:1/C16:0) % Change, Plasma” value [2, 3] was −6.8% and the “FADI-18 (Oleic acid/Stearic Acid, C18:1/C18:0) % Change, Plasma” value [2, 3] was −9.8%.
